In publication PMC5417072 (Anticancer research, 2016):

Biological target: SIRT2 (sirtuin-2) (Homo sapiens, UniProt Q8IXJ6)
Experiment: in vitro enzymatic assay
Type: biochemical

Chain of SIRT2 (sirtuin-2) (Q8IXJ6 2-389): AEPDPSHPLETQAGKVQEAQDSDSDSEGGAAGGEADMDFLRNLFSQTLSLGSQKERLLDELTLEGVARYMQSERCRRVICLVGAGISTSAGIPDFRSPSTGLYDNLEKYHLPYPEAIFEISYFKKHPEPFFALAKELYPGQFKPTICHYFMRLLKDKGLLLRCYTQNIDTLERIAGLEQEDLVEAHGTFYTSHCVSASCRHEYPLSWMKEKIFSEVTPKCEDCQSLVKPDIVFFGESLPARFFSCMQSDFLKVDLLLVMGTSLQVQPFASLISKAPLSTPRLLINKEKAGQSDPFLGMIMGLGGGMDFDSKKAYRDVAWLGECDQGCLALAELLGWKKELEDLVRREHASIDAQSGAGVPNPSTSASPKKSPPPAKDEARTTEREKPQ

COC(=O)[C@H](CCC(=O)Nc1cccc2c1ccn2Cc1cccc(C(N)=O)c1)NC(=O)OCc1ccccc1 [compound 6, (S)-Methyl 2-(((benzyloxy)carbonyl)amino)-5-((1-(3-carbamo-ylbenzyl)-1H-indol-4-yl)amino)-5-oxopentanoate]
IC50: 33 µM
